Measurements reported in patent publication US8404655B2, “Inhibition of palmitoyl acyl transferase expression and/or activity for the regulation of antiproliferative factor activity” (University of Florida Research Foundation, Inc., priority 2007, dated 2013).

Tests used:
ZO-1 mRNA = test: Quantitative real-time PCR of ZO-1 mRNA in NB cells; assay type: cell-based, human; conditions: 2.5 nM APF alone or with nonsense siRNA, 48 hours, normalized to β-actin
Description: (§1) RNA was assessed by visualization of the 28S/18S ribosomal RNA ratio on a 1% agarose gel, and total RNA concentration determined by measuring the absorbance of each sample at 260 nm and 280 nm using a Gene Quant RNA/DNA Calculator (Pharmacia Biotech). Quantitative real-time PCR for gene expression was performed using Quantitect Primers (Qiagen), SYBR Green RT-PCR kit reagents (Qiagen), and a Roche System II Light-Cycler (software version 3.5). Samples were tested in triplicate runs, and specific mRNA levels quantified and compared to mRNA levels for β-actin using real-time PCR analysis software from Applied Biosystems.

E-cadherin mRNA = test: Quantitative real-time PCR of E-cadherin mRNA in NB cells; assay type: cell-based, human; conditions: 2.5 nM APF alone or with nonsense siRNA, 48 hours
Description: as §1

CKAP4/p63 = test: Immunofluorescent localization of CKAP4/p63 in HeLa cells; assay type: cell-based, human; conditions: APF 20 nM, 48 hours
Description: Double stranded siRNA targeting ZDHHC2 was purchased from Dharmacon. HeLa cells or cells explanted from IC patients (IC cells) were trypsinized for 10 minutes at room temperature, centrifuged in growth medium (MEM with 10% heat inactivated FBS, 1% antibiotic/antimycotics solution, and 1% L glutamine), and the cell pellet was resuspended in serum-free medium at a density of 1×10^4 cells/ml. One mL of the cell suspension was then transferred to a sterile 2 mm cuvette with 20 μM siRNA, and electroporated at 160 V/500 μF capacitance using a BioRad Gene Pulser Xcell. HeLa cells were then plated onto a 96 well plate for the thymidine incorporation assay, and both HeLa and IC cells were plated onto an 8 well Lab-Tek tissue culture slide for confocal microscopy.
For confocal microscopy, after 96 hours of incubation the medium was removed from the wells and cells were fixed using ethanol/acetone (1:1) for 15 min at room temperature, washed three times with 1×PBS, and incubated with mouse monoclonal anti-CKAP4/p63 antibodies (“anti-CLIMP-63”, clone G1/296; Alexis Biochemicals) in PBS, for 2 hrs at 37° C. Cells were then washed three times with PBS and further incubated with fluorescein isothiocyanate (FITC)-labeled secondary antibody diluted in PBS (goat anti-Mouse IgG 1:2000; Zymed) for 2 hrs at 37° C. […]

[1] = test system: normal primary bladder (NB) epithelial cells; test: 3H-thymidine incorporation (cell proliferation), NB epithelial cells; assay type: cell-based, human; conditions: APF 0.25-250 nM, 48 hours, serum starvation
Description: Normal primary bladder (NB) epithelial cells were isolated from patients as previously described (Conrads et al., 2006; Keay et al., 2000; Keay et al., 2004; Keay et al., 1996). Cells were propagated in DMEM-F12 (Media-Tech) with 10% heat inactivated FBS, 1% antibiotic/antimycotic solution, 1% L-glutamine, 0.25 U/ml insulin (Sigma), and 5 ng/ml human epidermal growth factor (R & D Systems) at 37° C. in a 5% CO2 atmosphere, and characterized by binding of AE-1/AE-3 pancytokeratin antibodies (Signet) as previously described (Keay et al., 1996; Keay et al., 2004).
^3H-Thymidine Incorporation—Cell proliferation was measured by 3H-thymidine incorporation into the DNA of HeLa or NB epithelial cells. […] Cells were then incubated at 37° C. in a 5% CO2 atmosphere for 48 hours. The cell contents were harvested and methanol-fixed onto glass fiber filter paper, and the amount of radioactivity incorporated determined. Significant inhibition of ^3H-thymidine incorporation was defined as a mean decrease in counts per minute of greater than 2 standard deviations from the mean of control cells for each plate.

vimentin mRNA = test: Quantitative real-time PCR of vimentin mRNA in NB cells; assay type: cell-based, human; conditions: 2.5 nM APF alone or with nonsense siRNA, 48 hours, normalized to β-actin
Description: as §1

bladder epithelial cell = conditions: cited from earlier work
HeLa cells = test: 3H-thymidine incorporation (cell proliferation), HeLa cells; assay type: cell-based, human; conditions: APF 0.25-250 nM, 48 hours, serum starvation
Description: Cell proliferation was measured by 3H-thymidine incorporation into ZDHHC2 siRNA-treated HeLa cells. Briefly, electroporated cells that received ZDHHC2 or control nonsense siRNA were plated into 96 well culture plates and incubated at 37° C. in a 5% CO2 atmosphere for 96 hours. Purified lyophilized synthetic APF was re-suspended in acetonitrile/distilled water (1:1), diluted in serum-free MEM (containing only glutamine and antibiotics/antimycotics), and applied to HeLa cells; cell controls received acetonitrile/distilled water diluted in serum-free MEM alone. Cells were then incubated for an additional 48 hours. The cell contents were harvested and methanol-fixed onto glass fiber filter paper, and the amount of radioactivity incorporated determined. Significant inhibition of ^3H-thymidine incorporation was defined as a mean decrease in counts per minute of greater than 2 standard deviations from the mean of control cells for each plate.
siRNA—Double-stranded siRNA targeting ZDHHC2 (available from GenBank/EMBL/DDBJ under accession no. NM_016353) was purchased from Dharmacon (ON-TARGET plus). […]
^3H-Thymidine Incorporation—Cell proliferation was measured by 3H-thymidine incorporation into the DNA of HeLa or NB epithelial cells. […] The cell contents were harvested and methanol-fixed onto glass fiber filter paper, and the amount of radioactivity incorporated determined. […]

vimentin = test: Western blot of vimentin protein in HeLa cells; assay type: cell-based, human; conditions: APF 20 nM, 48 hours
Description: Western Blot Analysis—Cells were lysed in ice-cold RIPA buffer containing protease inhibitors (Pierce), sonicated, and centrifuged for 15 minutes at 4° C. The supernatant protein concentration was measured using a Folin reagent-based protein assay kit (BioRad). Proteins were separated by electrophoresis using 4-12% NuPAGE Novex Bis-Tris polyacrylamide gels in MOPS running buffer (Invitrogen) and then transferred to nitrocellulose. Membranes were blocked for 2 hours at room temperature in TBST buffer (Tris-buffered saline, pH 7.4, with 0.1% Tween 20) containing 5% nonfat milk and incubated with specific antibodies against vimentin (diluted 1:2000; BD Pharmingen) or ZO-1 (diluted 1:125; Zymed) overnight at 4° C. The membranes were subsequently washed with TBST, incubated for 1 hour at room temperature in HRP-conjugated goat anti-mouse (diluted 1:4000, Santa Cruz Biotechnology) or goat anti-rabbit (diluted 1:10000; Pierce) secondary antibodies, and developed by enhanced chemiluminescence (Pierce). To assess equal loading of protein, the membranes were stripped and reprobed for β-actin (diluted 1:5000; Sigma). […] The protein bands of interest were quantified using ImageJ and the integrated signal densities normalized first to β-actin (the loading control) and subsequently expressed in terms of the fractional abundance relative to untreated control cells.

**Q.** Which “reduction of ZO-1 mRNA levels” value (ZO-1 mRNA) does the source give for “Sialoglycopeptide: sialic acid α-2,3 galactose β1-3-N-acetylgalactosamine α-O-linked to N-terminal threonine of Frizzled 8 nonapeptide (TVPAAVVVA) [APF, antiproliferative factor]” here?
**A.** ~93%

**Q.** What about the “change of E-cadherin mRNA levels” value (E-cadherin mRNA) of the same substance?
**A.** dramatically increased

**Q.** And the “CKAP4 localization after APF treatment” value (CKAP4/p63)?
**A.** translocated to the nucleus and nucleolus

**Q.** And the “inhibition of NB cell proliferation (3H-thymidine incorporation)” value [1]?
**A.** concentration dependent manner

**Q.** What about the “reduction of vimentin mRNA levels” value (vimentin mRNA) of the same substance?
**A.** ~97%

**Q.** What about the “EC50 (potency of APF)” value (bladder epithelial cell) of the same substance?
**A.** picomolar range

**Q.** And the “inhibition of HeLa cell proliferation (3H-thymidine incorporation)” value (HeLa cells)?
**A.** concentration dependent manner

**Q.** And the “expression of vimentin following APF treatment” value (vimentin)?
**A.** reduced
